Measured values as given in ChEMBL document CHEMBL1201861, “Genomics of Drug Sensitity in Cancer screening data, Wellcome Trust Sanger Institute”.

Experiments:
Test in all cases: cells
IST-MEL1 = type: functional, cell-based, Homo sapiens; details: Homo sapiens, IST-MEL1;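 further: growth inhibition of the cell line, read out with a cell viability assay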
Description: SANGER: Inhibition of human IST-MEL1 cell growth in a cell viability assay.

NCI-H69 = type: functional, cell-based; details: Homo sapiens;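 further: growth inhibition of the cell line, read out with a cell viability assay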
Description: SANGER: Inhibition of human NCI-H69 cell growth in a cell viability assay.

EW-13 = type: functional, cell-based; details: Homo sapiens;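 further: growth inhibition of EW-13 cells, read out with a cell viability assay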
Description: SANGER: Inhibition of human EW-13 cell growth in a cell viability assay.

LB996-RCC = type: functional, cell-based; details: Homo sapiens
Description: SANGER: Inhibition of human LB996-RCC cell growth in a cell viability assay.

EW-11 = type: functional, cell-based, Homo sapiens; details: Homo sapiens, EW-11;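 further: growth inhibition of human EW-11 cells, measured with a cell viability assay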
Description: SANGER: Inhibition of human EW-11 cell growth in a cell viability assay.

SK-N-FI = type: functional, cell-based, Homo sapiens; details: Homo sapiens, SK-N-FI;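 further: cell viability assay measuring growth inhibition of human SK-N-FI cells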
Description: SANGER: Inhibition of human SK-N-FI cell growth in a cell viability assay.

OVCAR-4 = type: functional, cell-based, Homo sapiens; details: Homo sapiens, OVCAR-4;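 further: growth inhibition of human OVCAR-4 cells, measured with a cell viability assay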
Description: SANGER: Inhibition of human OVCAR-4 cell growth in a cell viability assay.

MHH-NB-11 = type: functional, cell-based, Homo sapiens; details: Homo sapiens, MHH-NB-11;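 further: growth inhibition of human MHH-NB-11 cells, read out by a cell viability assay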
Description: SANGER: Inhibition of human MHH-NB-11 cell growth in a cell viability assay.

VA-ES-BJ = type: functional, cell-based, Homo sapiens; details: Homo sapiens, VA-ES-BJ;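 further: growth inhibition of the VA-ES-BJ cell line, read out by a cell viability assay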
Description: SANGER: Inhibition of human VA-ES-BJ cell growth in a cell viability assay.

D283 Med = type: functional, cell-based, Homo sapiens; details: Homo sapiens, D283 Med
Description: SANGER: Inhibition of human D-283MED cell growth in a cell viability assay.

KG-1 = type: functional, cell-based; details: Homo sapiens;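 further: growth inhibition of KG-1 cells, read out by a cell viability assay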
TE-5 = type: functional, cell-based, Homo sapiens; details: Homo sapiens, TE-5;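 further: inhibition of cell growth, read out by a cell viability assay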
Description: SANGER: Inhibition of human TE-5 cell growth in a cell viability assay.

GI-1 = type: functional, cell-based, Homo sapiens; details: Homo sapiens, GI-1;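 further: growth inhibition of human GI-1 cells, measured with a cell viability readout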
Description: SANGER: Inhibition of human GI-1 cell growth in a cell viability assay.

MOLT-16 = type: functional, cell-based; details: Homo sapiens;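 further: growth inhibition of human MOLT-16 cells, read out with a cell viability assay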
Description: SANGER: Inhibition of human MOLT-16 cell growth in a cell viability assay.

RS4-11 = type: functional, cell-based; details: Homo sapiens;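 further: growth inhibition of RS4-11 cells, read out by a cell viability assay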
Description: SANGER: Inhibition of human RS4-11 cell growth in a cell viability assay.

BB49-HNC = type: functional, cell-based, Homo sapiens; details: Homo sapiens, BB49-HNC;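 further: cell viability assay read-out, reported as inhibition of BB49-HNC cell growth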
Description: SANGER: Inhibition of human BB49-HNC cell growth in a cell viability assay.

LB2518-MEL = type: functional, cell-based, Homo sapiens; details: Homo sapiens, LB2518-MEL;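 further: growth inhibition of human LB2518-MEL cells, measured with a cell viability assay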
Description: SANGER: Inhibition of human LB2518-MEL cell growth in a cell viability assay.

NCI-H1304 = type: functional, cell-based; details: Homo sapiens;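 further: growth inhibition of the cancer cell line, measured in a cell viability assay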
Description: SANGER: Inhibition of human NCI-H1304 cell growth in a cell viability assay.

HL-60 = type: functional, cell-based; details: Homo sapiens;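 further: growth inhibition of human HL-60 cells, read out with a cell viability assay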
Description: SANGER: Inhibition of human HL-60 cell growth in a cell viability assay.

SW 954 = type: functional, cell-based, Homo sapiens; details: Homo sapiens, SW 954;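 further: growth inhibition of SW954 human cancer cells, read out as cell viability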
Description: SANGER: Inhibition of human SW954 cell growth in a cell viability assay.

MFH-ino = type: functional, cell-based; details: Homo sapiens;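 further: growth inhibition of human MFH-ino cells, read out by a cell viability assay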
Description: SANGER: Inhibition of human MFH-ino cell growth in a cell viability assay.

NB7 = type: functional, cell-based; details: Homo sapiens;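 further: growth inhibition of NB7 cells, read out with a cell viability assay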
Description: SANGER: Inhibition of human NB7 cell growth in a cell viability assay.

QIMR-WIL = type: functional, cell-based; details: Homo sapiens;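 further: growth inhibition of QIMR-WIL cells, read out with a cell viability assay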
Description: SANGER: Inhibition of human QIMR-WIL cell growth in a cell viability assay.

SW 962 = type: functional, cell-based, Homo sapiens; details: Homo sapiens, SW 962;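 further: growth inhibition of human SW962 cells, read out by a cell viability assay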
Description: SANGER: Inhibition of human SW962 cell growth in a cell viability assay.

KU812 cell line = type: functional, cell-based; details: Homo sapiens;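 further: growth inhibition of KU812 cells, read out with a cell viability assay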
Description: SANGER: Inhibition of human KU812 cell growth in a cell viability assay.

ML-2 = type: functional, cell-based; details: Homo sapiens;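 further: growth inhibition of ML-2 cells, measured with a cell viability readout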
Description: SANGER: Inhibition of human ML-2 cell growth in a cell viability assay.

GR-ST = type: functional, cell-based; details: Homo sapiens
Description: SANGER: Inhibition of human GR-ST cell growth in a cell viability assay.

ES5 = type: functional, cell-based, Homo sapiens; details: Homo sapiens, ES5;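 further: growth inhibition of human ES5 cells, read out by a cell viability assay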
MOLT-4 = type: functional, cell-based; details: Homo sapiens;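 further: growth inhibition of MOLT-4 cells, determined with a cell viability readout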
Description: SANGER: Inhibition of human MOLT-4 cell growth in a cell viability assay.

RH-1 = type: functional, cell-based, Homo sapiens; details: Homo sapiens, RH-1;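 further: growth inhibition of human RH-1 cells, read out with a cell viability assay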

| SMILES | IC50 (IST-MEL1) [µM] | IC50 (NCI-H69) [µM] | IC50 (EW-13) [µM] | IC50 (LB996-RCC) [µM] | IC50 (EW-11) [µM] | IC50 (SK-N-FI) [µM] | IC50 (OVCAR-4) [µM] | IC50 (MHH-NB-11) [µM] | IC50 (VA-ES-BJ) [µM] | IC50 (D283 Med) [µM] | IC50 (KG-1) [µM] | IC50 (TE-5) [µM] | IC50 (GI-1) [µM] | IC50 (MOLT-16) [µM] | IC50 (BB49-HNC) [µM] | IC50 (LB2518-MEL) [µM] | IC50 (NCI-H1304) [µM] | IC50 (HL-60) [µM] | IC50 (SW 954) [µM] | IC50 (MFH-ino) [µM] | further results |
| --- | --- | --- | --- | --- | --- | --- | --- | --- | --- | --- | --- | --- | --- | --- | --- | --- | --- | --- | --- | --- | --- |
| C=C1C(=O)O[C@@H]2C3O[C@]3(C)CC/C=C(\C)CC[C@@H]12 (some centres undefined) | > 5 | > 5 | > 5 | > 5 | > 5 | > 5 | > 5 | > 5 | > 5 | > 5 | > 5 | > 5 | > 5 | > 5 | > 5 | > 5 | > 5 | > 5 | > 5 | > 5 | IC50 (RS4-11): > 5 µM; IC50 (NB7): > 5 µM; IC50 (QIMR-WIL): > 5 µM; IC50 (SW 962): > 5 µM; IC50 (KU812 cell line): > 5 µM; IC50 (ML-2): > 5 µM; IC50 (GR-ST): > 5 µM; IC50 (ES5): > 5 µM; IC50 (MOLT-4): > 5 µM; IC50 (RH-1): > 5 µM |
| CC1=C2C[C@H]3[C@@H](CC=C4C[C@@H](O)CC[C@@]43C)[C@@H]2CC[C@]12O[C@@H]1C[C@H](C)CN[C@H]1[C@H]2C [CYCLOPAMINE] | > 16 | > 16 | > 16 | > 16 | > 16 | > 16 | > 16 | > 16 | > 16 | > 16 | > 16 | > 16 | > 16 | > 16 | > 16 | > 16 | > 16 | > 16 | > 16 | > 16 | IC50 (RS4-11): > 16 µM; IC50 (NB7): > 16 µM; IC50 (QIMR-WIL): > 16 µM; IC50 (SW 962): > 16 µM; IC50 (KU812 cell line): > 16 µM; IC50 (ML-2): > 16 µM; IC50 (GR-ST): > 16 µM; IC50 (ES5): > 16 µM; IC50 (MOLT-4): > 16 µM; IC50 (RH-1): > 16 µM |
| CS(=O)(=O)CCNCc1ccc(-c2ccc3ncnc(Nc4ccc(OCc5cccc(F)c5)c(Cl)c4)c3c2)o1 [LAPATINIB] | > 2 | > 2 | > 2 | 1.36 | > 2 | > 2 | > 2 | > 2 | > 2 | > 2 | > 2 | > 2 | > 2 | > 2 | > 2 | > 2 | > 2 | > 2 | > 2 | > 2 | IC50 (RS4-11): > 2 µM; IC50 (NB7): > 2 µM; IC50 (QIMR-WIL): > 2 µM; IC50 (SW 962): > 2 µM; IC50 (KU812 cell line): > 2 µM; IC50 (ML-2): > 2 µM; IC50 (GR-ST): > 2 µM; IC50 (ES5): > 2 µM; IC50 (MOLT-4): > 2 µM; IC50 (RH-1): > 2 µM |
| CCc1nc(N)nc(N)c1-c1ccc(Cl)cc1 [PYRIMETHAMINE] | 4.33 | > 20 | > 20 | > 20 | > 20 | > 20 | 4.15 | 13.7 | 15.2 | > 20 | > 20 | > 20 | > 20 | 15.1 | > 20 | > 20 | > 20 | > 20 | > 20 | > 20 | IC50 (RS4-11): > 20 µM; IC50 (NB7): > 20 µM; IC50 (QIMR-WIL): 6.61 µM; IC50 (SW 962): > 20 µM; IC50 (KU812 cell line): 15.6 µM; IC50 (ML-2): 11.5 µM; IC50 (GR-ST): 0.709 µM; IC50 (ES5): > 20 µM; IC50 (MOLT-4): 5.43 µM; IC50 (RH-1): > 20 µM |
| O=C(/C=C/c1ccccc1)NC(NC(=S)Nc1cccc2cccnc12)C(Cl)(Cl)Cl (centres undefined) [SALUBRINAL] | > 16 | > 16 | > 16 | > 16 | > 16 | > 16 | 14.8 | > 16 | > 16 | > 16 | > 16 | > 16 | > 16 | 14 | > 16 | 7.97 | > 16 | 13.3 | > 16 | > 16 | IC50 (RS4-11): > 16 µM; IC50 (NB7): > 16 µM; IC50 (QIMR-WIL): > 16 µM; IC50 (SW 962): > 16 µM; IC50 (KU812 cell line): > 16 µM; IC50 (ML-2): 4.62 µM; IC50 (GR-ST): > 16 µM; IC50 (ES5): > 16 µM; IC50 (MOLT-4): > 16 µM; IC50 (RH-1): > 16 µM |
| CN1CCN(CCOc2cc(OC3CCOCC3)c3c(Nc4c(Cl)ccc5c4OCO5)ncnc3c2)CC1 [SARACATINIB] | > 2 | > 2 | > 2 | 0.442 | > 2 | > 2 | > 2 | > 2 | > 2 | > 2 | > 2 | > 2 | > 2 | > 2 | > 2 | > 2 | > 2 | > 2 | > 2 | 1.78 | IC50 (RS4-11): > 2 µM; IC50 (NB7): > 2 µM; IC50 (QIMR-WIL): > 2 µM; IC50 (SW 962): > 2 µM; IC50 (KU812 cell line): > 2 µM; IC50 (ML-2): > 2 µM; IC50 (GR-ST): > 2 µM; IC50 (ES5): > 2 µM; IC50 (MOLT-4): > 2 µM; IC50 (RH-1): > 2 µM |
| CO[C@H]1C[C@@H]2CC[C@@H](C)[C@@](O)(O2)C(=O)C(=O)N2CCCC[C@H]2C(=O)O[C@H]([C@H](C)C[C@@H]2CC[C@@H](O)[C@H](OC)C2)CC(=O)[C@H](C)/C=C(\C)[C@@H](O)[C@@H](OC)C(=O)[C@H](C)C[C@H](C)/C=C/C=C/C=C/1C [SIROLIMUS] | > 0.1 | > 0.1 | > 0.1 | 0.0934 | > 0.1 | > 0.1 | > 0.1 | > 0.1 | 0.000723 | > 0.1 | > 0.1 | > 0.1 | 0.0704 | > 0.1 | > 0.1 | > 0.1 | 0.0572 | > 0.1 | > 0.1 | > 0.1 | IC50 (RS4-11): > 0.1 µM; IC50 (NB7): > 0.1 µM; IC50 (QIMR-WIL): 0.0118 µM; IC50 (SW 962): > 0.1 µM; IC50 (KU812 cell line): 0.00201 µM; IC50 (ML-2): > 0.1 µM; IC50 (GR-ST): 0.000846 µM; IC50 (ES5): > 0.1 µM; IC50 (MOLT-4): 0.0968 µM; IC50 (RH-1): > 0.1 µM |
| CNC(=O)c1cc(Oc2ccc(NC(=O)Nc3ccc(Cl)c(C(F)(F)F)c3)cc2)ccn1 [SORAFENIB] | > 4 | > 4 | > 4 | > 4 | > 4 | > 4 | 2.21 | > 4 | > 4 | > 4 | 1.48 | 3.13 | > 4 | > 4 | > 4 | 1.21 | > 4 | 3.06 | > 4 | 2.92 | IC50 (NB7): > 4 µM; IC50 (QIMR-WIL): > 4 µM; IC50 (SW 962): > 4 µM; IC50 (KU812 cell line): > 4 µM; IC50 (ML-2): > 4 µM; IC50 (GR-ST): > 4 µM; IC50 (ES5): > 4 µM; IC50 (MOLT-4): > 4 µM; IC50 (RH-1): > 4 µM |
